The target of test [1] is T1, human CXCR4 (Homo sapiens, UniProt P61073). Briefly: IC50 for inhibition of CXCR4 activation, β-Arrestin recruitment (Example 22). Format: cell-based. Details: host or cells: C2C12 (mouse myoblast) CXCR4 β-Arrestin PathHunter cell line. The method, then: The assay was run with the DiscoverX protocol. β-Arrestin recruitment assays were performed by Eurofins-DiscoverX (Fremont, Calif.) using C2C12 CXCR4 β-Arrestin cell line (co-expressing ProLink tagged human CXCR4 and Enzyme Acceptor tagged β-Arrestin) and PathHunter detection kit. Peptides were initially prepared as 1 mM stock in H2O and tested in ten (10)-step concentration response curves using 3-fold dilution steps with 1 μM as highest concentration; a concentration range of 1 μM-0.05 nM was tested. C2C12 CXCR4 β-Arrestin cells were seed onto 384-well plates in standard medium. […] At the end of the 90 min incubation period, β-Arrestin recruitment in response to various treatments was quantified using a chemiluminescent complementation reporter assay to measure association of tagged human […] (ProLink tag) and tagged β-Arrestin (Enzyme Acceptor tag).
T1 sequence (P61073 whole entry): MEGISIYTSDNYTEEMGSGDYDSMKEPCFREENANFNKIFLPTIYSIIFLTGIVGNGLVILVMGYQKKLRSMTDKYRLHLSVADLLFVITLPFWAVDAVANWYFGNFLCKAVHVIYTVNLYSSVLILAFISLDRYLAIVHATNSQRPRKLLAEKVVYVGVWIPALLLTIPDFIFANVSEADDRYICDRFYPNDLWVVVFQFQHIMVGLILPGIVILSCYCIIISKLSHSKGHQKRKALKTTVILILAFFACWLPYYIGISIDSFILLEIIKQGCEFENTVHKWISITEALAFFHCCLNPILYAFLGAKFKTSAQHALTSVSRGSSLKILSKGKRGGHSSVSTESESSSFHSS

Test [2] addresses T1, human CXCR4. Put plainly: CXCR4/CXCL12 binding, HTRF format, single concentration (Example 23). On the set-up: host or cells: HEK293 (Tag-lite CXCR4 cells, frozen aliquots, transient expression). Particulars: 15 nM CXCR4R fluorescent probe, 3 hours, HEK293 Tag-lite CXCR4 cells. As to the method: Peptides were initially prepared as 1 mM stock in H2O and tested at a final concentration of 400 nM. Following the manufacture's protocol, a frozen aliquot of Tag-lite CXCR4 cells was thawed and immediately seeded onto 384-well plates in TLB. Immediately following the addition of cells, 400 nM peptide (final concentration) in TLB was added to the appropriate well. Then 15 nM (final concentration; EC80) of CXCR4R fluorescent probe was added to each well to initiate the HTRF assay. The plates were covered in aluminum foil and left at room temperature for 3 hours. Following the 3 hour incubation period, the plates were removed from the incubator and fluorescence measured using a Cytation 1 plate reader using a HTRF filter cube ([…]; BioTek; Winooski, Vt.). According manufacture's instruction data reduction was performed by calculating the ratio of 665 nm signal (TRF of 665 nm excitation by 620 emission; amount of CXCR4R fluorescent probe bound to terbium labeled CXCR receptor)/620 nm signal (620 excitation by 330 nm light source; normalization factor for amount of terbium labeled CXCR4 receptor in well)×10,000.

Square brackets hold non-standard residues; d marks the D form. Peptide text beside a SMILES is read from it.

Compound `CC(C)C[C@H](NC(=O)[C@H](CO)NC(=O)[C@H](CO)NC(=O)[C@H](CCCNC(=N)N)NC(=O)[C@@H](C)NC(=O)[C@H](CO)NC(=O)[C@H](Cc1c[nH]cn1)NC(=O)[C@H](Cc1c[nH]cn1)NC(=O)[C@H](Cc1ccc(O)cc1)NC(=O)[C@H](CCCNC(=N)N)NC(=O)[C@H](CCCNC(=N)N)NC(=O)[C@@H](N)CC(C)C)C(=O)N[C@@H](CCCNC(=N)N)C(=O)N1CCC[C@H]1C(=O)N[C@@H](Cc1ccc(O)cc1)C(=O)N[C@H](C(=O)N[C@@H](CCCCN)C(=O)O)[C@@H](C)O` [compound 6] (H-LRRYHHS[dA]RSSLRPYTK-OH; N-terminus and C-terminus assumed) returned an IC50 in test [1] of 8 nM. Besides, in test [2], the “Percent Inhibition of CXCR4/CXCL12 Binding (400 nM peptide)” value is −10%.

`CC(C)C[C@H](NC(=O)[C@H](CO)NC(=O)[C@H](CO)NC(=O)[C@H](CCCNC(=N)N)NC(=O)[C@@H](NC(=O)[C@H](CO)NC(=O)[C@H](Cc1c[nH]cn1)NC(=O)[C@H](Cc1c[nH]cn1)NC(=O)[C@H](Cc1ccc(O)cc1)NC(=O)[C@@H](N)CCCNC(=N)N)C(C)C)C(=O)N[C@@H](CCCNC(=N)N)C(=O)N1CCC[C@H]1C(=O)N[C@@H](Cc1ccc(O)cc1)C(=O)N[C@H](C(=O)N[C@@H](CCCCN)C(=O)O)[C@@H](C)O` [compound 11] (H-RYHHSVRSSLRPYTK-OH; N-terminus and C-terminus assumed) yielded a half-inhibitory concentration (IC50) in test [1] of 175 nM. For the same compound, the “Percent Inhibition of CXCR4/CXCL12 Binding (400 nM peptide)” value in test [2] is −9%.

For the compound `CC(C)C[C@H](NC(=O)[C@H](CO)NC(=O)[C@H](CO)NC(=O)[C@H](CCCNC(=N)N)NC(=O)[C@@H](NC(=O)[C@H](CO)NC(=O)[C@H](Cc1c[nH]cn1)NC(=O)[C@H](Cc1c[nH]cn1)NC(=O)[C@H](Cc1ccc(O)cc1)NC(=O)[C@H](CCCNC(=N)N)NC(=O)[C@H](CCC(=O)O)NC(=O)[C@@H](N)CC(C)C)C(C)C)C(=O)O` [compound 22] (H-LERYHHSVRSSL-OH; N-terminus and C-terminus assumed), the IC50 in test [1] turned out to be 17 nM. Also, the “Percent Inhibition of CXCR4/CXCL12 Binding (400 nM peptide)” value in test [2] was found to be 14%.

Take `CC(C)C[C@H](NC(=O)[C@H](CO)NC(=O)[C@H](CO)NC(=O)[C@H](CCCNC(=N)N)NC(=O)[C@@H](NC(=O)[C@H](CO)NC(=O)[C@H](Cc1c[nH]cn1)NC(=O)[C@H](Cc1c[nH]cn1)NC(=O)[C@H](Cc1ccc(O)cc1)NC(=O)[C@H](CCCNC(=N)N)NC(=O)[C@H](CCCNC(=N)N)NC(=O)[C@@H](N)CC(C)C)C(C)C)C(=O)O` [compound 28] (H-LRRYHHSVRSSL-OH; N-terminus and C-terminus assumed): in test [1], the IC50 came out at 4 nM. The “Percent Inhibition of CXCR4/CXCL12 Binding (400 nM peptide)” value in test [2] is on record as 12%.

The compound `CC(C)C[C@H](NC(=O)[C@H](CO)NC(=O)[C@H](CO)NC(=O)[C@H](CCCNC(=N)N)NC(=O)[C@@H](NC(=O)[C@H](CO)NC(=O)[C@H](Cc1c[nH]cn1)NC(=O)[C@H](CC(N)=O)NC(=O)[C@H](Cc1ccc(O)cc1)NC(=O)[C@H](CCCNC(=N)N)NC(=O)[C@H](CCCNC(=N)N)NC(=O)[C@@H](N)CC(C)C)C(C)C)C(=O)N[C@@H](CCCNC(=N)N)C(=O)N1CCC[C@H]1C(=O)N[C@@H](Cc1ccc(O)cc1)C(=O)N[C@H](C(=O)N[C@@H](CCCCN)C(=O)O)[C@@H](C)O` [compound 41] (H-LRRYNHSVRSSLRPYTK-OH; N-terminus and C-terminus assumed) showed an IC50 in test [1] of 4 nM. Moreover, the “Percent Inhibition of CXCR4/CXCL12 Binding (400 nM peptide)” value in test [2] is −2%.

In test [1], `CC(C)C[C@H](NC(=O)[C@H](CO)NC(=O)[C@H](CO)NC(=O)[C@H](CCCNC(=N)N)NC(=O)[C@@H](NC(=O)[C@H](CO)NC(=O)[C@H](CC(N)=O)NC(=O)[C@H](Cc1c[nH]cn1)NC(=O)[C@H](Cc1ccc(O)cc1)NC(=O)[C@H](CCCNC(=N)N)NC(=O)[C@H](CCC(=O)O)NC(=O)[C@@H](N)CC(C)C)C(C)C)C(=O)N[C@@H](CCCNC(=N)N)C(=O)N1CCC[C@H]1C(=O)N[C@@H](Cc1ccc(O)cc1)C(=O)N[C@H](C(=O)N[C@@H](CCCCN)C(=O)O)[C@@H](C)O` [compound 45] (H-LERYHNSVRSSLRPYTK-OH; N-terminus and C-terminus assumed) yielded an IC50 of 121 nM. Moreover, in test [2], the “Percent Inhibition of CXCR4/CXCL12 Binding (400 nM peptide)” value came to 1%.

Turning to `CC(C)C[C@H](NC(=O)[C@H](CO)NC(=O)[C@H](CO)NC(=O)[C@H](CCCNC(=N)N)NC(=O)[C@@H](NC(=O)[C@H](CO)NC(=O)[C@H](Cc1c[nH]cn1)NC(=O)[C@H](CCC(N)=O)NC(=O)[C@H](Cc1ccc(O)cc1)NC(=O)[C@H](CCCNC(=N)N)NC(=O)[C@H](CCCNC(=N)N)NC(=O)[C@@H](N)CC(C)C)C(C)C)C(=O)N[C@@H](CCCNC(=N)N)C(=O)N1CCC[C@H]1C(=O)N[C@@H](Cc1ccc(O)cc1)C(=O)N[C@H](C(=O)N[C@@H](CCCCN)C(=O)O)[C@@H](C)O` [compound 47] (H-LRRYQHSVRSSLRPYTK-OH; N-terminus and C-terminus assumed), the concentration for half-maximal inhibition (IC50) in test [1] is 11 nM. The “Percent Inhibition of CXCR4/CXCL12 Binding (400 nM peptide)” value in test [2] amounted to 5%.

As to `CC(C)C[C@H](NC(=O)[C@H](CO)NC(=O)[C@H](CO)NC(=O)[C@H](CCCNC(=N)N)NC(=O)[C@@H](NC(=O)[C@H](CO)NC(=O)[C@H](CCC(N)=O)NC(=O)[C@H](Cc1c[nH]cn1)NC(=O)[C@H](Cc1ccc(O)cc1)NC(=O)[C@H](CCCNC(=N)N)NC(=O)[C@H](CCCNC(=N)N)NC(=O)[C@@H](N)CC(C)C)C(C)C)C(=O)N[C@@H](CCCNC(=N)N)C(=O)N1CCC[C@H]1C(=O)N[C@@H](Cc1ccc(O)cc1)C(=O)N[C@H](C(=O)N[C@@H](CCCCN)C(=O)O)[C@@H](C)O` [compound 50] (H-LRRYHQSVRSSLRPYTK-OH; N-terminus and C-terminus assumed), the midpoint of inhibition in test [1], the IC50, lay at 121 nM. Further, the “Percent Inhibition of CXCR4/CXCL12 Binding (400 nM peptide)” value in test [2] is given as −5%.

In test [1], `CC(C)C[C@H](NC(=O)[C@H](CO)NC(=O)[C@H](CO)NC(=O)[C@H](CCCNC(=N)N)NC(=O)[C@@H](C)NC(=O)[C@H](CO)NC(=O)[C@H](CCC(N)=O)NC(=O)[C@H](Cc1c[nH]cn1)NC(=O)[C@H](Cc1ccc(O)cc1)NC(=O)[C@H](CCCNC(=N)N)NC(=O)[C@H](CCC(=O)O)NC(=O)[C@@H](N)CC(C)C)C(=O)N[C@@H](CCCNC(=N)N)C(=O)N1CCC[C@H]1C(=O)N[C@@H](Cc1ccc(O)cc1)C(=O)N[C@H](C(=O)N[C@@H](CCCCN)C(=O)O)[C@@H](C)O` [compound 52] (H-LERYHQS[dA]RSSLRPYTK-OH; N-terminus and C-terminus assumed) came in with an IC50 of 121 nM. In addition, in test [2], the “Percent Inhibition of CXCR4/CXCL12 Binding (400 nM peptide)” value was −2%.

`CC(C)C[C@H](NC(=O)[C@H](CO)NC(=O)[C@H](CO)NC(=O)[C@H](CCCNC(=N)N)NC(=O)[C@@H](NC(=O)[C@H](CO)NC(=O)[C@H](Cc1c[nH]cn1)NC(=O)[C@H](Cc1c[nH]cn1)NC(=O)[C@H](Cc1ccc(O)cc1)NC(=O)[C@H](CCCNC(=N)N)NC(=O)[C@H](CCCNC(=N)N)NC(=O)[C@@H](N)CC(C)C)C(C)C)C(=O)N[C@@H](CCC(=O)O)C(=O)N1CCC[C@H]1C(=O)N[C@@H](Cc1ccc(O)cc1)C(=O)N[C@H](C(=O)N[C@@H](CCCCN)C(=O)O)[C@@H](C)O` [compound 63] (H-LRRYHHSVRSSLEPYTK-OH; N-terminus and C-terminus assumed) registered a concentration for half-maximal inhibition (IC50) in test [1] of 14 nM. Also, in test [2], the “Percent Inhibition of CXCR4/CXCL12 Binding (400 nM peptide)” value is listed as 9%.

Consider `CC(C)C[C@H](NC(=O)[C@H](CO)NC(=O)[C@H](CO)NC(=O)[C@H](CCC(=O)O)NC(=O)[C@@H](C)NC(=O)[C@H](CO)NC(=O)[C@H](Cc1c[nH]cn1)NC(=O)[C@H](Cc1c[nH]cn1)NC(=O)[C@H](Cc1ccc(O)cc1)NC(=O)[C@H](CCCNC(=N)N)NC(=O)[C@H](CCCNC(=N)N)NC(=O)[C@@H](N)CC(C)C)C(=O)N[C@@H](CCCNC(=N)N)C(=O)N1CCC[C@H]1C(=O)N[C@@H](Cc1ccc(O)cc1)C(=O)N[C@H](C(=O)N[C@@H](CCCCN)C(=O)O)[C@@H](C)O` [compound 64] (H-LRRYHHS[dA]ESSLRPYTK-OH; N-terminus and C-terminus assumed), for which, in test [1], the IC50 was 14 nM. In test [2], the “Percent Inhibition of CXCR4/CXCL12 Binding (400 nM peptide)” value is −6%.

Values taken from patent US20220395553A1, “CXCR4 ANTAGONIST PEPTIDES” (COHBAR, INC., priority 2019, published 2022).
